The first experiment concerns the target T1, H3 receptors (Cavia porcellus, UniProt Q9JI35).
T1 construct: The source of the H3 receptors in this experiment was guinea pig brain; from tissue; host or cells: guinea pig brain membranes
The experiment can be described thus: H3-Receptor Binding Assay (guinea pig brain membranes, [3H]R-a-methylhistamine or [3H]Na-methylhistamine).
Details: not given
The method, then: The source of the H3 receptors in this experiment was guinea pig brain. The animals weighed 400-600 g. The brain tissue was homogenized using a Polytron in a solution of 50 mM Tris, pH 7.5. The final concentration of tissue in the homogenization buffer was 10% w/v. The homogenates were centrifuged at 1,000×g for 10 min. in order to remove clumps of tissue and debris. The resulting supernatants were then centrifuged at 50,000×g for 20 min. in order to sediment the membranes, which were next washed three times in homogenization buffer (50,000×g for 20 min. each). The membranes were frozen and stored at -70° C. until needed.
All compounds to be tested were dissolved in DMSO and then diluted into the binding buffer (50 mM Tris, pH 7.5) such that the final concentration was 2 μg/ml with 0.1% DMSO. Membranes were then added (400 μg of protein) to the reaction tubes. The reaction was started by the addition of 3 nM [^3 H]R-a-methylhistamine (8.8 Ci/mmol) or 3 nM [^3 H]N^a -methylhistamine (80 Ci/mmol) and continued under incubation at 30° C. for 30 min. Bound ligand was separated from unbound ligand by filtration, and the amount of radioactive ligand bound to the membranes was quantitated by liquid scintillation spectrometry. All incubations were performed in duplicate and the standard error was always less than 10%. […] The results are given in the table below for the HCl salt of the indicated compound.
T1 sequence (Q9JI35 whole entry): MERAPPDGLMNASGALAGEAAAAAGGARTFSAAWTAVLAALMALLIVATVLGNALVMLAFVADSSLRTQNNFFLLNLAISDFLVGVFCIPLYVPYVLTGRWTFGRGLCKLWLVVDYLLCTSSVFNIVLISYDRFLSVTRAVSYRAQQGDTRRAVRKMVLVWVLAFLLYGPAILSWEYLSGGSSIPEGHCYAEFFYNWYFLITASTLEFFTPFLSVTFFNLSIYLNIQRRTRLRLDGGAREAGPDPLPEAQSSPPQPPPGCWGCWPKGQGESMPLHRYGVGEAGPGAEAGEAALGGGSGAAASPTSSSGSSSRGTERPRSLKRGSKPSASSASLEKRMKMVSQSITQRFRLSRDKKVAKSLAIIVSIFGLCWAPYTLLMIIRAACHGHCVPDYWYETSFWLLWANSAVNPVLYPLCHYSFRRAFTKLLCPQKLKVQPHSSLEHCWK
Molecule `O=C(CCc1ccc(Cc2c[nH]cn2)cc1)NCCc1ccc(Cl)cc1` [Compound 24] showed a Ki of 5 nM.

Molecule `O=C(NCc1ccc(Cc2c[nH]cn2)cc1)Nc1cc(Cl)cc(Cl)c1` [Compound 8] showed a Ki of 12 nM.

Regarding `O=C(CCc1ccc(Cc2c[nH]cn2)cc1)Nc1cccc(Cl)c1` [Compound 22], the affinity corresponds to a Ki of 1 nM.

For the molecule `O=C(CCc1ccc(Cc2c[nH]cn2)cc1)Nc1ccccc1` [Compound 21], the Ki turned out to be 2 nM.

As for `COc1cccc(NC(=O)OCc2ccc(Cc3c[nH]cn3)cc2)c1` [Compound 17], the Ki is 13 nM.

For the molecule `O=C(Nc1cccc(F)c1)OCc1ccc(Cc2c[nH]cn2)cc1` [Compound 19], the Ki amounted to 5 nM.

For the molecule `Cc1cc(C)cc(NC(=O)OCc2ccc(Cc3c[nH]cn3)cc2)c1` [Compound 14], the affinity, expressed as Ki, was 17 nM.

Molecule `N#Cc1cccc(NC(=O)OCc2ccc(Cc3c[nH]cn3)cc2)c1` [Compound 15] came in with a Ki of 7 nM.

The molecule `O=C(Nc1cccc(C(F)(F)F)c1)OCc1ccc(Cc2c[nH]cn2)cc1` [Compound 12] yielded a Ki of 21 nM.

The same experiment, now with this note: HCl salt of the indicated compound; guinea pig brain membranes; 3 nM [3H]R-a-methylhistamine or 3 nM [3H]Na-methylhistamine, pH 7.5, 30° C., 30 min; read-out: Ki.
Take `O=C(NCc1ccc(Cc2c[nH]cn2)cc1)Nc1cc(Cl)cc(Cl)c1` [Compound 8]: the Ki amounted to 4 nM.

As to `O=C(Nc1ccc(Cl)c(Cl)c1)OCc1ccc(Cc2c[nH]cn2)cc1` [Compound 13], the Ki was 18 nM.

On to `N#Cc1cccc(NC(=O)NCc2ccc(Cc3c[nH]cn3)cc2)c1` [Compound 7], for which the Ki is 5 nM.

On to `O=C(Nc1cc(Cl)cc(Cl)c1)OCc1ccc(Cc2c[nH]cn2)cc1` [Compound 20], for which the inhibition constant (Ki) was 5 nM.

Regarding `O=C(NCc1ccc(Cc2c[nH]cn2)cc1)Nc1ccc(Cl)c(Cl)c1` [Compound 10], the Ki is 7 nM.

Take `COc1cccc(NC(=O)NCc2ccc(Cc3c[nH]cn3)cc2)c1` [Compound 1]: the Ki is 18 nM.

Turning to `O=C(NCc1ccc(Cc2c[nH]cn2)cc1)Nc1cccc(Cl)c1` [Compound 9], the inhibition constant Ki is 6 nM.

As for `O=C(Nc1cc(C(F)(F)F)cc(C(F)(F)F)c1)OCc1ccc(Cc2c[nH]cn2)cc1` [Compound 18], the Ki worked out at 23 nM.

Regarding `Cc1cc(C)cc(NC(=O)NCc2ccc(Cc3c[nH]cn3)cc2)c1` [Compound 3], the inhibition constant (Ki) stood at 9 nM.

For the molecule `O=C(NCc1ccc(Cc2c[nH]cn2)cc1)Nc1ccccc1Cl` [Compound 4], the Ki is 32 nM.

Turning to `O=C(NCc1ccc(Cc2c[nH]cn2)cc1)Nc1cc(C(F)(F)F)cc(C(F)(F)F)c1` [Compound 2], the Ki amounted to 22 nM.

In the case of `O=C(NCc1ccc(Cc2c[nH]cn2)cc1)Nc1cccc(C(F)(F)F)c1` [Compound 6], the inhibition constant (Ki) was 16 nM.

The next experiment relates to short-term memory and reversal learning.
Experiment: not given
As to conditions: rat; Clapham et al., Brit. J. Pharm. Suppl. 1993; cited from earlier work.
As to `S=C(NC1CCCCC1)N1CCC(c2cnc[nH]2)CC1` [thioperamide], the “short-term memory and reversal learning” value was “can improve short-term memory and reversal learning in the rat”.

The test system of the next experiment is electrically induced convulsions.
Experiment: not given
As to conditions: mice; Yokoyama et al., Eur. J. Pharmacol. 1993; cited from earlier work.
For the molecule `S=C(NC1CCCCC1)N1CCC(c2cnc[nH]2)CC1` [thioperamide], the “duration of each phase of convulsion” value is on record as “decreased the duration of each phase of convulsion” and the electroconvulsive threshold entry is “raised the electroconvulsive threshold”.

The values above are taken from US5990147A, “H3 receptor ligands of the phenyl-alkyl-imidazoles type” (Schering Corporation, priority 1998, dated 1999).
